What was measured:
786-0 = test: NCI human tumor cell panel: 786-0 (Renal Cancer); type: cell-based; conditions: 786-0, Renal Cancer
IGROV1 = test: NCI human tumor cell panel: IGROV1 (Ovarian Cancer); type: cell-based; conditions: IGROV-1, IGROV1, Ovarian Cancer
HCT-15 = test: NCI human tumor cell panel: HCT-15 (Colon Cancer); type: cell-based; conditions: HCT-15, Colon Cancer
SR = test: NCI human tumor cell panel: SR (Leukemia); type: cell-based; conditions: Leukemia
BT-549 = test: NCI human tumor cell panel: BT-549 (Breast Cancer); type: cell-based; conditions: BT-549, Breast Cancer
MOLT-4 = test: NCI human tumor cell panel: MOLT-4 (Leukemia); type: cell-based; conditions: MOLT-4, Leukemia
ACHN = test: NCI human tumor cell panel: ACHN (Renal Cancer); type: cell-based; conditions: Renal Cancer
UACC-257 = test: NCI human tumor cell panel: UACC-257 (Melanoma); type: cell-based; conditions: UACC-257, Melanoma
HCT-116 = test: NCI human tumor cell panel: HCT-116 (Colon Cancer); type: cell-based; conditions: HCT-116, Colon Cancer
MALME-3M = test: NCI human tumor cell panel: MALME-3M (Melanoma); type: cell-based; conditions: MALME-3M, Melanoma
KM12 = test: NCI human tumor cell panel: KM12 (Colon Cancer); type: cell-based; conditions: KM12, Colon Cancer
SW-620 = test: NCI human tumor cell panel: SW-620 (Colon Cancer); type: cell-based; conditions: SW-620, Colon Cancer, read-out: Log10 TGI (converted)
OVCAR-5 = test: NCI human tumor cell panel: OVCAR-5 (Ovarian Cancer); type: cell-based; conditions: OVCAR-5, Ovarian Cancer
OVCAR-8 = test: NCI human tumor cell panel: OVCAR-8 (Ovarian Cancer); type: cell-based; conditions: OVCAR-8, Ovarian Cancer
TK-10 = test: NCI human tumor cell panel: TK-10 (Renal Cancer); type: cell-based; conditions: TK-10, Renal Cancer
A498 = test: NCI human tumor cell panel: A498 (Renal Cancer); type: cell-based; conditions: A498, Renal Cancer
HT29 = test: NCI human tumor cell panel: HT29 (Colon Cancer); type: cell-based; conditions: HT-29, HT29, Colon Cancer
K-562 = test: NCI human tumor cell panel: K-562 (Leukemia); type: cell-based; conditions: K562, K-562, Leukemia
A549/ATCC = test: NCI human tumor cell panel: A549/ATCC (Non-Small Cell Lung Cancer); type: cell-based; conditions: Non-Small Cell Lung Cancer
HS 578T = test: NCI human tumor cell panel: HS 578T (Breast Cancer); type: cell-based; conditions: Breast Cancer
SNB-75 = test: NCI human tumor cell panel: SNB-75 (CNS Cancer); type: cell-based; conditions: SNB-75, CNS Cancer, read-out: Log10 GI50 (converted)
SN12C = test: NCI human tumor cell panel: SN12C (Renal Cancer); type: cell-based; conditions: Renal Cancer
LOX IMVI = test: NCI human tumor cell panel: LOX IMVI (Melanoma); type: cell-based; conditions: Melanoma
UACC-62 = test: NCI human tumor cell panel: UACC-62 (Melanoma); type: cell-based; conditions: UACC-62, Melanoma
SF-295 = test: NCI human tumor cell panel: SF-295 (CNS Cancer); type: cell-based; conditions: SF-295, CNS Cancer
HOP-62 = test: NCI human tumor cell panel: HOP-62 (Non-Small Cell Lung Cancer); type: cell-based; conditions: HOP-62, Non-Small Cell Lung Cancer
OVCAR-4 = test: NCI human tumor cell panel: OVCAR-4 (Ovarian Cancer); type: cell-based; conditions: OVCAR-4, Ovarian Cancer
EKVX = test: NCI human tumor cell panel: EKVX (Non-Small Cell Lung Cancer); type: cell-based; conditions: Non-Small Cell Lung Cancer
NCI-H460 = test: NCI human tumor cell panel: NCI-H460 (Non-Small Cell Lung Cancer); type: cell-based; conditions: NCI-H460, Non-Small Cell Lung Cancer
MCF7/ADR-RES = test: NCI human tumor cell panel: MCF7/ADR-RES (Breast Cancer); type: cell-based; conditions: Breast Cancer
HOP-92 = test: NCI human tumor cell panel: HOP-92 (Non-Small Cell Lung Cancer)
PC-3 = test: NCI human tumor cell panel: PC-3 (Prostate Cancer); type: cell-based; conditions: PC-3, Prostate Cancer
NCI-H23 = test: NCI human tumor cell panel: NCI-H23 (Non-Small Cell Lung Cancer); type: cell-based; conditions: NCI-H23, Non-Small Cell Lung Cancer
[1] = read-out: Log10 GI50 (converted)
[2] = read-out: Log10 TGI (converted)

SMILES: O=Cc1ccc(-c2ccc(-c3cccs3)[se]2)s1 [NSC 675346]
- GI50 (786-0; [1]): 13.5 µM
- IC (TGI) (786-0; [2]): > 100 µM
- GI50 (IGROV1; [1]): 0.162 µM
- IC (TGI) (IGROV1; [2]): 0.562 µM
- GI50 (HCT-15; [1]): 18.6 µM
- IC (TGI) (HCT-15; [2]): > 100 µM
- GI50 (SR; [1]): > 100 µM
- IC (TGI) (SR; [2]): > 100 µM
- GI50 (BT-549; [1]): ≥ 100 µM
- IC (TGI) (BT-549; [2]): > 100 µM
- GI50 (MOLT-4; [1]): > 100 µM
- IC (TGI) (MOLT-4; [2]): > 100 µM
- GI50 (ACHN; [1]): 22.9 µM
- IC (TGI) (ACHN; [2]): > 100 µM
- GI50 (UACC-257; [1]): 0.0263 µM
- IC (TGI) (UACC-257; [2]): 0.0832 µM
- GI50 (HCT-116; [1]): 0.115 µM
- IC (TGI) (HCT-116; [2]): > 100 µM
- GI50 (MALME-3M; [1]): 34.7 µM
- IC (TGI) (MALME-3M; [2]): > 100 µM
- GI50 (KM12; [1]): 32.4 µM
- IC (TGI) (KM12; [2]): > 100 µM
- IC (TGI) (SW-620): > 100 µM
- GI50 (OVCAR-5; [1]): 0.0447 µM
- IC (TGI) (OVCAR-5; [2]): 0.575 µM
- GI50 (OVCAR-8; [1]): 4.47 µM
- IC (TGI) (OVCAR-8; [2]): > 100 µM
- GI50 (TK-10; [1]): 0.0631 µM
- IC (TGI) (TK-10; [2]): 0.417 µM
- GI50 (A498; [1]): 0.145 µM
- IC (TGI) (A498; [2]): 0.295 µM
- GI50 (HT29; [1]): > 100 µM
- IC (TGI) (HT29; [2]): > 100 µM
- GI50 (K-562; [1]): 2.29 µM
- IC (TGI) (K-562; [2]): > 100 µM
- GI50 (A549/ATCC; [1]): 55 µM
- IC (TGI) (A549/ATCC; [2]): > 100 µM
- GI50 (HS 578T; [1]): 23.4 µM
- IC (TGI) (HS 578T; [2]): > 100 µM
- GI50 (SNB-75): 13.8 µM
- GI50 (SN12C; [1]): > 100 µM
- IC (TGI) (SN12C; [2]): > 100 µM
- GI50 (LOX IMVI; [1]): 19.5 µM
- IC (TGI) (LOX IMVI; [2]): > 100 µM
- GI50 (UACC-62; [1]): < 0.01 µM
- IC (TGI) (UACC-62; [2]): 0.0282 µM
- GI50 (SF-295; [1]): 21.4 µM
- IC (TGI) (SF-295; [2]): 69.2 µM
- GI50 (HOP-62; [1]): 64.6 µM
- IC (TGI) (HOP-62; [2]): > 100 µM
- GI50 (OVCAR-4; [1]): 0.12 µM
- IC (TGI) (OVCAR-4; [2]): 26.9 µM
- GI50 (EKVX; [1]): 77.6 µM
- IC (TGI) (EKVX; [2]): > 100 µM
- GI50 (NCI-H460; [1]): 0.251 µM
- IC (TGI) (NCI-H460; [2]): > 100 µM
- GI50 (MCF7/ADR-RES; [1]): 13.2 µM
- IC (TGI) (MCF7/ADR-RES; [2]): 60.3 µM
- GI50 (HOP-92; HOP-92, read-out: Log10 GI50 (converted)): 18.6 µM
- IC (TGI) (HOP-92; HOP-92, read-out: Log10 TGI): 70.8 µM
- GI50 (PC-3; [1]): 61.7 µM
- IC (TGI) (PC-3; [2]): > 100 µM
- GI50 (NCI-H23; [1]): 14.5 µM
- IC (TGI) (NCI-H23; [2]): 58.9 µM
